Reference: paper PMC3655043, “Functional expression of a blood tolerant laccase in Pichia pastoris” (BMC Biotechnology, 2013)

Molecular target: T1, ChU-B laccase (blood-tolerant ChU-B mutant of PM1 laccase) (basidiomycete PM1, UniProt Q12571, F417I/F475E, form not given)
T1 construct: directed-evolution variant; alpha-factor evolved prepro-leader processed, extra N-terminal ETEAEF kept (ETEAEFSIGP...); secreted by Pichia pastoris X-33; 53,939 Da calculated, 62,541 Da glycosylated
Test: steady-state kinetics, absorbance […] nm
Type: biochemical
Conditions: pH 5.0; enzyme from P. pastoris; read-out: ChU-B fromP. pastoris / Km

T1 sequence (Q12571 entry or part of it F417I/F475E, form open): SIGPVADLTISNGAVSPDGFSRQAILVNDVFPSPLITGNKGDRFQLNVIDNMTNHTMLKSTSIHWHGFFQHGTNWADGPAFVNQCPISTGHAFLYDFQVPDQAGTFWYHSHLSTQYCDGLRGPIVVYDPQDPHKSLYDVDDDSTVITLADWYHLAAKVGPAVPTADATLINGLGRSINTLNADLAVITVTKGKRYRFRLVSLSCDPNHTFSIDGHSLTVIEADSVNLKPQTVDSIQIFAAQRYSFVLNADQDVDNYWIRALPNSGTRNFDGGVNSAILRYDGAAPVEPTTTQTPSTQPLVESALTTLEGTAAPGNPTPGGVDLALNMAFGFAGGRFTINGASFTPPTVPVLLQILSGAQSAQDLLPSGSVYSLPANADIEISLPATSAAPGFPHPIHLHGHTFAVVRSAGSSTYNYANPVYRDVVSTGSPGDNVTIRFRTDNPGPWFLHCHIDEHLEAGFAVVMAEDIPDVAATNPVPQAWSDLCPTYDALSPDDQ

Molecule `COc1cccc(OC)c1O` [DMP] has a Km of 1910 ± 50 µM.
